This note sets out measurements from PubChem BioAssay (NCI).

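Protocol summary: plate cells (96-well), add compound at 5 concentrations, incubate 48 h, interpolate endpoints linearly. Here, GI50 denotes the concentration required for 50% inhibition of growth. TGI is the concentration that stops growth completely.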

Among the test systems are HOP-92 NSCLC; IGROV1 ovarian; OVCAR-8 ovarian; LOX IMVI melanoma; MOLT-4 leukemia; RXF 393 renal; SNB-75 CNS; SW-620 colon; SR leukemia; NCI/ADR-RES ovarian.
Test in all cases: DTP human tumour cell line panel, 48 h

Broadly, the TGI is the concentration at which net growth stops. Low readings indicate more potent growth arrest, high ones less potent growth arrest. With `O=C1NC2(CCCCC2)C2CCCCC=C12` (stereo not given), the TGI in the assay on HOP-92 NSCLC, in the assay with IGROV1 ovarian, with OVCAR-8 ovarian, with LOX IMVI melanoma, with MOLT-4 leukemia and with RXF 393 renal was above 100 µM throughout. Also, the TGI in the assay with SNB-75 CNS, with SW-620 colon and in the assay with SR leukemia was above 100 µM in each case.
With `CN(C)C(=S)/N=c1\ssc(=S)n1Cc1ccco1`, the TGI with HOP-92 NSCLC is above 100 µM; in the assay with IGROV1 ovarian it was above 100 µM; in the assay with OVCAR-8 ovarian, above 100 µM; with LOX IMVI melanoma, above 100 µM; with MOLT-4 leukemia, above 83.7 µM; with RXF 393 renal it was 8.22 µM. In addition, the TGI with SNB-75 CNS is above 23.9 µM; in the assay on SW-620 colon, above 100 µM; in the assay with SR leukemia, above 100 µM.
The term GI50 denotes the concentration that inhibits growth by half. Consider `CCC[CH2][Sn]([CH2]CCC)([O]C(=O)c1cc(F)ccc1F)[O]C(=O)c1cc(F)ccc1F`, for which the GI50 in the assay on HOP-92 NSCLC is 1.26 µM; in the assay on IGROV1 ovarian, 1.63 µM; in the assay with OVCAR-8 ovarian it was 1.34 µM; in the assay with LOX IMVI melanoma, 0.581 µM; in the assay with MOLT-4 leukemia it was 0.347 µM; in the assay with RXF 393 renal it was 0.326 µM. Also, the GI50 was 1.13 µM with SNB-75 CNS, 0.619 µM with SW-620 colon and 0.502 µM in the assay with SR leukemia. The TGI in the assay with HOP-92 NSCLC is 2.52 µM; in the assay with IGROV1 ovarian, 3.18 µM; in the assay with OVCAR-8 ovarian it was 2.65 µM; with LOX IMVI melanoma, 1.85 µM; in the assay with MOLT-4 leukemia, 2.01 µM; in the assay on RXF 393 renal, 1.12 µM. Also, the TGI is 2.49 µM in the assay with SNB-75 CNS, 1.91 µM with SW-620 colon and 8.74 µM with SR leukemia.
For the molecule `O=[N+]([O-])c1cccc(S(=O)(=O)N/N=C/c2cc(I)cc([N+](=O)[O-])c2O)c1`, the TGI was 35.1 µM in the assay on HOP-92 NSCLC; above 100 µM in the assay on IGROV1 ovarian; 63.2 µM in the assay on OVCAR-8 ovarian; 62.3 µM in the assay on LOX IMVI melanoma; 81.5 µM in the assay on MOLT-4 leukemia; 56.3 µM in the assay on RXF 393 renal. Also, the TGI in the assay with SNB-75 CNS came to 67.2 µM; in the assay with SW-620 colon it was 58.5 µM; in the assay with SR leukemia, 60.9 µM.
Consider `O=C1C(Cl)=C(Cl)C(=O)N1c1cccc(C(F)(F)F)c1`, for which the TGI in the assay with HOP-92 NSCLC was above 100 µM; in the assay on IGROV1 ovarian it was above 100 µM; in the assay on OVCAR-8 ovarian, above 100 µM; with LOX IMVI melanoma, above 100 µM; with MOLT-4 leukemia, above 86.6 µM; in the assay on RXF 393 renal, 70 µM. The TGI with SNB-75 CNS, with SW-620 colon and with SR leukemia was above 100 µM throughout.
Regarding `COC(=O)C12C34C=CC5(CCC6(C=CC1(CC3)O6)C52C(=O)OC)O4` (stereo not given), the TGI with HOP-92 NSCLC, in the assay on IGROV1 ovarian, in the assay on OVCAR-8 ovarian, with LOX IMVI melanoma, in the assay on MOLT-4 leukemia and in the assay with RXF 393 renal was above 100 µM in each case. Moreover, the TGI in the assay on SW-620 colon and with SR leukemia was above 100 µM each time.
On to `CCOC(=O)/C(C#N)=C\Sc1ccccc1`, for which the TGI in the assay with HOP-92 NSCLC is above 100 µM; in the assay on IGROV1 ovarian, 23.2 µM; with OVCAR-8 ovarian, 27.3 µM; in the assay on LOX IMVI melanoma, 21.4 µM; in the assay on MOLT-4 leukemia, 67.3 µM; with RXF 393 renal, 35.1 µM. For the same molecule, the TGI in the assay on SNB-75 CNS was found to be 53.9 µM; with SW-620 colon, 72.6 µM; in the assay with SR leukemia it was 45.2 µM.
Regarding `CC(C)N1C(C)[C@@H](c2ccccc2)O[P@@]1(=O)CC1=CCCCC1` (stereo not given in full), the TGI in the assay with HOP-92 NSCLC, with IGROV1 ovarian, with OVCAR-8 ovarian, with LOX IMVI melanoma, with MOLT-4 leukemia and with RXF 393 renal was above 100 µM in each case. In addition, the TGI in the assay on SNB-75 CNS, in the assay with SW-620 colon and with SR leukemia was above 100 µM each time.
As to `Cc1ccc(-c2c3c(nn2-c2ccc(S(=O)(=O)NC(=O)NC4CCCCC4)cc2)-c2ccccc2C3)cc1`, the GI50 was 2.65 µM in the assay with HOP-92 NSCLC; 12.9 µM in the assay with IGROV1 ovarian; 26.2 µM in the assay with OVCAR-8 ovarian; 16 µM with NCI/ADR-RES ovarian; 1.82 µM in the assay on LOX IMVI melanoma; 1.86 µM with MOLT-4 leukemia. In addition, the GI50 in the assay with RXF 393 renal was 23.3 µM; with SNB-75 CNS, 20.4 µM; with SW-620 colon, 2.65 µM. Moreover, the TGI in the assay with HOP-92 NSCLC is 15.8 µM; in the assay on IGROV1 ovarian it was 27.9 µM; in the assay on OVCAR-8 ovarian, 70.7 µM; with NCI/ADR-RES ovarian, 54.5 µM; in the assay with LOX IMVI melanoma, 3.73 µM; with MOLT-4 leukemia it was 6.14 µM. The TGI in the assay on RXF 393 renal amounted to 63.1 µM; with SNB-75 CNS, 45.5 µM; with SW-620 colon it was 6.31 µM.
As for `CN(C)N=Nc1cccc(C(N)=O)c1`, the concentration for total growth inhibition (TGI) in the assay with HOP-92 NSCLC, with IGROV1 ovarian, in the assay with OVCAR-8 ovarian, in the assay with MOLT-4 leukemia, with RXF 393 renal and in the assay with SNB-75 CNS was above 100 µM each time. Further, the TGI with SW-620 colon and with SR leukemia was above 100 µM throughout.
Take `CC(C)(C)C(=O)c1c(C(F)(F)F)n([O-])c2cc(Cl)c(Cl)cc2[n+]1=O`: the GI50 was 1.47 µM in the assay with HOP-92 NSCLC; 0.077 µM in the assay with IGROV1 ovarian; 0.502 µM in the assay with OVCAR-8 ovarian; 0.567 µM in the assay on NCI/ADR-RES ovarian; 1.04 µM with LOX IMVI melanoma; 0.437 µM in the assay on MOLT-4 leukemia. Moreover, the GI50 with RXF 393 renal is 0.438 µM; in the assay on SNB-75 CNS, 0.189 µM; with SW-620 colon, 0.244 µM. For the same molecule, the TGI with HOP-92 NSCLC worked out at 2.78 µM; in the assay with IGROV1 ovarian, 0.213 µM; with OVCAR-8 ovarian, 1.51 µM; with NCI/ADR-RES ovarian, 1.37 µM; with MOLT-4 leukemia, 0.987 µM; in the assay with RXF 393 renal it was 0.909 µM. The TGI is 0.408 µM with SNB-75 CNS and 0.644 µM in the assay with SW-620 colon.
Turning to `COc1cc([C@@H]2OC(=O)C3C2C(=O)O[C@H]3c2ccc(O)c(OC)c2)ccc1O` (stereo not given in full), the TGI in the assay on HOP-92 NSCLC, in the assay with IGROV1 ovarian, with OVCAR-8 ovarian, with LOX IMVI melanoma, in the assay on MOLT-4 leukemia and in the assay with RXF 393 renal was above 100 µM throughout. The TGI in the assay on SNB-75 CNS, with SW-620 colon and with SR leukemia was above 100 µM throughout.
In the case of `CC1=CC(C)(C)Nc2ccc(Cc3ccc4c(c3)C(C)=CC(C)(C)N4)cc21`, the GI50 was 8.42 µM in the assay with HOP-92 NSCLC; 16.1 µM in the assay on IGROV1 ovarian; 9.59 µM with OVCAR-8 ovarian; 18.1 µM with NCI/ADR-RES ovarian; 15.1 µM in the assay on LOX IMVI melanoma; 4.86 µM in the assay with MOLT-4 leukemia. Moreover, the GI50 with RXF 393 renal was 22 µM; in the assay on SNB-75 CNS it was 14.8 µM; in the assay on SW-620 colon, 11.5 µM. Besides, the TGI is 65.6 µM in the assay on HOP-92 NSCLC; above 100 µM with IGROV1 ovarian; 56.8 µM in the assay with OVCAR-8 ovarian; above 100 µM with NCI/ADR-RES ovarian; 82.2 µM in the assay on LOX IMVI melanoma; 54 µM with MOLT-4 leukemia. Moreover, the TGI in the assay on RXF 393 renal is 88.7 µM; in the assay on SNB-75 CNS it was above 100 µM; in the assay on SW-620 colon, 25.5 µM.
Take `C=CCC(N[C@H](CO)c1ccccc1)c1ccccn1` (stereo not given in full): the GI50 was 88.2 µM in the assay with IGROV1 ovarian; above 100 µM in the assay on OVCAR-8 ovarian; above 100 µM in the assay with NCI/ADR-RES ovarian; above 100 µM with LOX IMVI melanoma; above 100 µM in the assay with RXF 393 renal; above 100 µM in the assay with SNB-75 CNS. Moreover, the GI50 in the assay on SW-620 colon and in the assay on SR leukemia was above 100 µM throughout. Moreover, the TGI in the assay with IGROV1 ovarian, in the assay with OVCAR-8 ovarian, in the assay with NCI/ADR-RES ovarian, with LOX IMVI melanoma, with RXF 393 renal and in the assay on SNB-75 CNS was above 100 µM each time. Besides, the TGI in the assay with SW-620 colon and in the assay with SR leukemia was above 100 µM each time.
For the molecule `O=C1C(Cl)=C(Cl)C(=O)N1c1ccc(F)cc1`, the TGI in the assay on HOP-92 NSCLC was determined as 35.8 µM; with IGROV1 ovarian, 43.6 µM; in the assay on OVCAR-8 ovarian it was 45.1 µM; in the assay on LOX IMVI melanoma it was 32.6 µM; in the assay with MOLT-4 leukemia, 34.8 µM; in the assay on RXF 393 renal, 38.5 µM. The values for the TGI with SNB-75 CNS, with SW-620 colon and in the assay on SR leukemia were 20.8 µM, 34.1 µM and 47.2 µM, respectively.
For the molecule `COc1cccc2c(SCC(=O)Nc3ccccc3-c3ccccc3NC(=O)CSc3c4ccccc4nc4c(OC)cccc34)c3ccccc3nc12`, the TGI is above 100 µM in the assay with IGROV1 ovarian; above 100 µM in the assay with OVCAR-8 ovarian; above 100 µM with MOLT-4 leukemia; above 100 µM with RXF 393 renal; 44.5 µM in the assay with SNB-75 CNS; above 100 µM in the assay on SR leukemia.
For the molecule `CCCCCCCCC(C)CCCCCCCCC(=O)OCC(COP(=O)([O-])OCC[N+](C)(C)C)OC(=O)CCCCCCCCC(C)CCCCCCCC` (stereo not given), the TGI with HOP-92 NSCLC, in the assay with IGROV1 ovarian, with OVCAR-8 ovarian, with LOX IMVI melanoma, in the assay on MOLT-4 leukemia and in the assay with RXF 393 renal was above 100 µM each time. Besides, the TGI in the assay with SNB-75 CNS, in the assay with SW-620 colon and in the assay on SR leukemia was above 100 µM each time.
